Test results as given in patent publication US20010007856A1, “METHOD FOR PREVENTING AND TREATING AT A SUPERACUTE PHASE, AGAINST NEUROLOGICAL DEFICITS OR NEURONAL DEATH IN BRAIN ISCHEMIA AND PATHOLOGICAL CONDITIONS” (priority 1997, published 2001).
Read-outs that look alike come from different tables or passages of the source.

Experiments:
[1] = prior art feature; cited from earlier work
[2] = solubility (descriptive); format: physicochemical
From the text: (§1) L-threo-DOPS, whose molecular formula is C9H11NO5, is white or light brown crystals or crystalline powder with no taste or odor. […] It is difficult to measure a clear melting point or decomposition point for L-threo-DOPS. […] DL-threo-DOPS, which contains 50% L-threo-DOPS, can also be used in this invention. Hereafter, L-threo-DOPS and DL-threo-DOPS are generically denoted as “threo-DOPS”.

[3] = system: SD rats; settings: oral; 60, 200, 600 mg/kg/day; cited from earlier work
[4] = system: middle brain artery (MC) occulusion model Wistar rats; experiment: transient cerebral ischemia, middle brain artery (MC) occlusion model, infarction volume; format: in vivo; settings: for reduction of size of cerebral infarction: MC occlusion 1 hour
[5] = system: rhesus monkeys; settings: cited from earlier work
[6] = system: SD rats; settings: oral, 60, 200, 600 mg/kg/day, cited from earlier work
[7] = system: cultured cells; settings: cited from earlier work
[8] = system: SD rats; settings: oral, 3 months, cited from earlier work
[9] = system: SD rats; settings: oral, 12 months, cited from earlier work
[10] = system: Mice, ICR strain; settings: cited from earlier work; for LD50: mouse, in vivo
[11] = system: microorganisms; settings: cited from earlier work
[12] = system: patients with brain ischemia (subarachnoid hemorrhage, cerebral infarction, brain injury, brain hemorrhage); settings: human, in vivo
Procedure: In order further to examine the neuroprotective effect in cerebral ischemia indicated from the experiment, a clinical preliminary study was conducted.
After the neck clipping surgery, 500 mg/day of “DOPS” (registered trademark, Sumitomo Pharmaceuticals Co., Ltd., Japan) was administered for 5 days.
Neck clipping was conducted on the day of onset, when the patient's condition was Hunt & Kosnic Grade IV. From the third day after subarachnoid hemorrhage, 500 mg/day of “DOPS” (registered trademark) was administered for 5 days.
Neck clipping was conducted on the day of onset, when the patient's condition was Hunt & Kosnic Grade IV. Since consciousness disturbance (semicoma), hyperventilation, and reduced light reflex were observed on the sixth day after surgery, a diagnosis of impending cerebral herniation was established and 500 mg/day of “DOPS” (registered trademark) was administered for 5 days. […] Soon after discontinuation of administration, mydriasis was rapidly observed.
Left hemiplegia first appeared and consciousness disturbance (JCS:100) and mydriasis of the right eye were observed 2 days later. Immediately after that, external and internal decompressions was performed and 300 mg/day of “DOPS” (registered trademark) was simultaneously administered for 5 days.
From the time immediately after injury, the patient developed mydriasis in both eyes and deep coma due to brainstem hernia. […]

[13] = system: guinea pigs (Hartley strain, male); settings: guinea pig, in vivo; cited from earlier work
[14] = system: SD rats (male and female); settings: oral; 60, 200, 600 mg/kg/day; cited from earlier work
[15] = system: rhesus monkeys; settings: oral, 3 months; 300, 1,000, 3,000 mg/kg/day; cited from earlier work
[16] = system: mice; settings: mouse, in vivo; cited from earlier work
[17] = system: Rats, SD strain; settings: cited from earlier work
[18] = system: beagle dogs; settings: oral, 3 months; 200, 600, 2,000 mg/kg/day; cited from earlier work
[19] = system: rabbits; settings: oral; 30, 100, 300 mg/kg/day; cited from earlier work
[20] = physchem; format: physicochemical
From the text: as §1

[21] = system: beagle dogs; settings: cited from earlier work
[22] = system: beagle dogs; settings: oral, 12 months; 125, 500, 2,000 mg/kg/day; cited from earlier work

N[C@H](C(=O)O)[C@H](O)c1ccc(O)c(O)c1 [threo-DOPS]
passage through the blood-brain barrier [1]: passes through the blood-brain barrier into the brain

N[C@H](C(=O)O)[C@H](O)c1ccc(O)c(O)c1 [L-threo-DOPS, (−)-(2S, 3R)-2-amino-3-hydroxy-3-(3,4-dihydroxyphenyl) propionic acid]
solubility in ether, ethanol and glacial acetic acid ([2]; ether, ethanol, glacial acetic acid): dissolves very little | solubility in water ([2]; water): dissolves only slightly | dose with shortening of the pregnancy period [3]: 600 mg/kg | dose with suppression of neonatal development after birth [3]: ≥ 60 mg/kg | other influence [3]: No other influence was observed | reduction of size of cerebral infarction ([4]; L-threo-DOPS 400 mg/kg (+ BSZ 2 mg/kg) i.p. 30 minutes before occlusion, FIG. 1): about 40% | reduction of size of cerebral infarction ([4]; L-threo-DOPS 400 mg/kg (+ BSZ 2 mg/kg) i.p. one hour after occlusion, FIG. 2): about 40% | regression effect on cerebral infarction ([4]; MC occlusion 24 hours, L-threo-DOPS 400 mg/kg (+ BSZ 2 mg/kg) i.p. one hour after occlusion, FIG. 3): no regression effect was observed | LD50 ([5]; rhesus monkey, in vivo, po): >5000 mg/kg | general symptoms in acute toxicity ([5]; rhesus monkeys): no abnormal symptom was observed | other influence [6]: No other influence was observed | dose with lower body weights of fetuses and increased occurrence of undulating ribs ([6]; restorable after birth): ≥ 200 mg/kg | mutagenicity, chromosome abnormality [7]: no mutagenicity was observed | dose with suppressed voluntary motions, necrosis of kidney uriniferous tubuli, necrosis of cardiac muscles, etc. ([8]; 60, 300, 1,500 mg/kg/day): ≥ 60 mg/kg/day | dose with drooling [8]: 1,500 mg/kg/day | dose with suppression of weight increases and such [8]: ≥ 300 mg/kg/day | dose with suppression of weight increases, increase in thymus weight, necrosis of kidney uriniferous tubuli, degeneration of kidney glomeruli, etc. ([9]; 10, 30, 100, 300 mg/kg/day): ≥ 30 mg/kg/day | dose with drooling, myocarditis and calcification of cardiac muscles, etc. [9]: ≥ 100 mg/kg/day | general symptoms in acute toxicity ([10]; mice): reduced voluntary motions, deep breathing and bradypnea | LD50 ([10]; iv): >100 mg/kg | LD50 ([10]; po): >10000 mg/kg | LD50 [10]: >10000 mg/kg | mutagenicity, back mutation [11]: no mutagenicity was observed | adverse effects [12]: No adverse effects were observed | Endodermoreaction [13]: negative | PCA reaction [13]: negative | intra-gel sedimentation reaction [13]: negative | systemic anaphylaxis reaction [13]: negative | influence on mating rate, conception rate, nidation number, embryo/neonate death, teratogenic actions or fetal development [14]: no influence was observed | abnormality in various observations and testing evaluations [15]: no abnormality was observed | mutagenicity, micronucleus [16]: no mutagenicity was observed | LD50 ([17]; rat, in vivo, po): >10000 mg/kg | general symptoms in acute toxicity ([17]; rats): reduced voluntary motions, deep breathing and bradypnea | abnormality in various observations and testing evaluations [18]: no abnormality was observed | influence on the rabbits [19]: no influence on the rabbits was observed | pKa [20]: 7.88 | LD50 ([21]; dog, in vivo, po): >5000 mg/kg | general symptoms in acute toxicity ([21]; dogs): no abnormal symptom was observed | abnormality in various observations and testing evaluations [22]: no abnormality was observed
